Calls of active or inactive are those of the source. No rule for the calls is given here.
Tested on: Leishmania donovani growth inhibition
Assay: Leishmania donovani growth inhibition (AID 1159560);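 also: parasites exposed to compound for 72 h before the viability read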

SMILES	IC50
CNc1nc(C)nc(N2CCc3cc(C(=O)NCc4ccc(-c5nccn5C)cc4Cl)ccc32)n1	5 µM
O=C(CN(Cc1ccccn1)Cc1ccccn1)NCc1ccc2c(c1)OCO2	13 µM
N#Cc1ccc(S(=O)(=O)N2CCC3(CCN(c4ccccc4)C3=O)CC2)cc1	> 50 µM (inactive)
OCCCNc1nc(Nc2ccncc2)nc2ccccc12	40 µM
O=c1cc(NCCCNC2CCOc3c(I)cc(Cl)cc32)[nH]c2ccccc12 (centres undefined)	32 µM
Cc1cc(N2CCc3ccccc3C2)nc(Nc2ccc(S(=O)(=O)N3CCOCC3)cc2)n1	3.2 µM
O=C(c1cnn(-c2ccccc2)n1)N1CCCC(n2ccnc2)C1 (centres undefined)	7.9 µM
Cc1cc(-c2cccc3ccccc23)nc2nc(N)nc(N)c12	2 µM
CN(Cc1nnnn1C1CCN(Cc2ccc(-n3ccnc3)cc2)CC1)c1ccc(F)cc1F	> 50 µM (inactive)
Cc1ccc(NC(C)C(=O)Nc2ccc(C#N)cc2)cc1S(=O)(=O)N1CCCCC1 (centres undefined)	0.79 µM
Cc1cn[nH]c1C1CCCN(Cc2nc3ccccc3n2C)C1 (centres undefined)	16 µM
COc1ccc(-c2cnc(C)o2)cc1S(=O)(=O)Nc1ccc(C)cc1C	4 µM
O=C(N[C@H](CO)c1ccccc1)c1ccc(-c2c[nH]c3nccc(C(F)(F)F)c23)s1	32 µM
NCC(Cc1ccccc1)NC(=O)c1cnc(-c2c[nH]c3ncccc23)s1 (centres undefined)	> 50 µM (inactive)
O=C(Nc1nc(-c2ccccn2)cs1)c1ccccc1-n1cnnn1	3.2 µM
Cc1c(Nc2cc(C3CC3)[nH]n2)ccc(C#N)c1Cl	20 µM
O=C(NCc1ccc(Cl)cc1)C1CN(C(=O)c2ccc(F)cc2)CCS1 (centres undefined)	> 50 µM (inactive)
COc1ccc(Nc2nc(-c3ccccn3)cs2)c(OC)c1	6.3 µM
CN(C)CCN(C)Cc1ccc(F)cc1NS(=O)(=O)c1ccc(Cl)c(Cl)c1	7.9 µM
COc1ccc(S(=O)(=O)NCc2ccc(-c3ccc(CN(C)CCO)cc3)cc2)cc1	> 50 µM (inactive)
COc1cc(OC)cc(C(=O)N[C@@H](CC(C)C)C(=O)NC2(C#N)CC2)c1	> 50 µM (inactive)
O=C(NCCc1ccn(-c2ccccc2)n1)C1CCCCC1	> 50 µM (inactive)
O=C(NCCc1ccccc1Cl)c1cccn1-c1cccnc1	6.3 µM
c1ccc2c(CCOc3nccnc3-c3ccncc3)c[nH]c2c1	5 µM
CCn1c(-c2nonc2N)nc2c([C@@H](C)O)ncc(O[C@H](CN)c3ccccc3)c21	20 µM

SMILES	IC50
CCN(Cc1cccs1)C(=O)CSc1nnc(-c2ccc3c(c2)OCO3)o1	3.2 µM
COc1cc(NC(=O)Nc2cccc(CNC(=O)OC3CCCCC3)c2)ccc1-c1cnco1	> 50 µM (inactive)
CC(C)Oc1cccc(N2CCC(C(=O)N3CCCN(C(C)C)CC3)CC2)c1	> 50 µM (inactive)
Cc1sc(C)c(C(F)(F)F)c1CNCCCNc1cc(=O)c2ccccc2[nH]1	> 50 µM (inactive)
O=C(Nc1ccc(C(F)(F)F)cc1)Nc1cccc([N+](=O)[O-])c1	7.9 µM
C[C@@H](Oc1cc(-n2cnc3ccc(C(O)CO)cc32)sc1C(N)=O)c1ccccc1C(F)(F)F (some centres undefined)	16 µM
O=C(c1ccc(OCCCc2cnc[nH]2)cc1)C1CC1	> 50 µM (inactive)
CC(=O)Nc1ccc(-c2ccnc(Nc3cccc(C#N)c3)n2)cc1	40 µM
Cc1[nH]nc(C(F)(F)F)c1NC(=O)CCn1cc(Cl)c([N+](=O)[O-])n1	> 50 µM (inactive)
CCOc1ccccc1C(=O)Nc1nnc(-c2ccc3c(c2)OCO3)s1	0.79 µM
CNc1cc(Cn2c(C(=O)c3cc(C)cc(Cl)c3)c(C(C)C)c(=O)[nH]c2=O)ccn1	> 50 µM (inactive)
Cn1nc(C(=O)N2CCc3ccccc32)c2c1CCS(=O)(=O)C2	4 µM
Cc1cccc(N2CCCN(Cc3c[nH]c4ccccc34)CC2)n1	> 50 µM (inactive)
O=C(CCCNC(=O)c1ccc(Cl)cc1)Nc1nc(-c2ccccn2)cs1	> 50 µM (inactive)
CCc1nn(-c2ncc(F)c(NC(C)C)n2)c(N)c1C1CCCCC1	3.2 µM
O=C(c1cccc(Nc2ncc(-c3ccc4c(c3)OCO4)cn2)c1)N1CCOCC1	2 µM
O=C(NCCNc1noc(-c2ccc([N+](=O)[O-])cc2)n1)c1ccc(Cl)cc1	> 50 µM (inactive)
COc1cc(-c2nc(N3CCOCC3)sc2-c2ccnc(NC3CCOCC3)n2)ccc1Cl	> 50 µM (inactive)
NCc1csc(Nc2cc(Oc3ccccc3)ncn2)n1	> 50 µM (inactive)
CN(Cc1cc2ccccc2s1)c1ncc2c(N)nc(N)nc2n1	32 µM
Cc1ccnc(NS(=O)(=O)c2ccc(NC(=O)c3ccc([N+](=O)[O-])s3)cc2)n1	4 µM
CCc1ccc2nc(NC(=O)c3cc(N4CCOCC4)ccn3)sc2c1	2 µM
O=C(CCc1ccc(-c2ccccc2)o1)N1CCN(c2ccc(O)cc2)CC1	10 µM
NCc1ccc2c(Cl)cc(Cl)c(O)c2n1	6.3 µM

— PubChem BioAssay AID1159560 (GlaxoSmithKline (GSK), 2015)
